# In PubChem BioAssay AID2060616 (Molecular Pharmacology Branch, DTP, NCI, 2025):
# pIC50: −log10 of the molar value. Values joined by “and” are separate entries in the source; they are usually repeats but may differ in a detail not shown here. Equal values may be shown once.
# Tested on: 377384-186-R-J1-PDC complex spheroid viability
# Assay: Anticancer human tumor 377384-186-R-J1-PDC patient-derived pancreatic carcinoma cell line growth inhibition [CLK]
# Conditions: for viability, T/C: stronger effect = lower value
# Description: A high-throughput screen of multi-cell type tumor spheroids was designed to identify active combinations of […] and targeted small molecules. Complex spheroids include a stromal component modeled by human endothelial cells (HUVEC) and fibroblasts modeled by human mesenchymal stem cells (MSCs). The concentration ranges selected for each drug and investigational agent were based upon clinically achievable concentrations if the clinical Cmax of the agent was known.
# Compounds. The drugs and investigational agents: cirtuvivint (SM08502; NSC835563), CC-671 (NSC850746), vemurafenib (NSC761431), tapotoclax (NSC804041), sotorasib (NSC818433), adagrasib (NSC831453), MRTX-1133 (NSC836407), BAY2416964 (NSC825713), copanlisib (NSC816437), inavolisib (NSC800729), abemaciclib (NSC768073), osimertinib (NSC779217), entinostat (NSC756642), eltanexor (KPT-8602, NSC794443), venetoclax (NSC766270), ceralasertib (NSC777638), bortezomib (NSC756655), olaparib (NSC753686), talazoparib (NSC767125), alisertib (NSC759677), peposertib (NSC802822), gemcitabine (NSC613327), 5-fluorouracil (NSC19893), SN-38 (NSC673596), oxaliplatin (NSC266046), paclitaxel (NSC125973), and doxorubicin (NSC123127), were obtained from the National Cancer Institute (NCI) Developmental Therapeutics Program Chemical Repository. The FDA-approved anticancer drug set is available from the Developmental Therapeutics Program at https://dtp.cancer.gov/organization/dscb/obtaining/available plates.htm. […] The stock solutions were prepared in dimethyl sulfoxide (DMSO, Sigma-Aldrich, St. Louis, MO, cat. D2650), except for the platinum complexes which were prepared in saline (Quality Biological, Gaithersburg, MD, cat. 114-055-101), at 800-fold the tested concentration and stored at -70 degrees C prior to their use. All drugs and investigational agents were tested over a range starting from a high concentration at or near the clinical Cmax and decreasing in half-log increments. If the clinical Cmax for an agent had not been determined, the highest concentration tested was 10 microM.
# Cell Culture. All cells were maintained in an incubator at 37 degrees C and 5% CO2 with 95% humidity. The PDC lines were cultured according to standard operating procedures established by the NCI PDMR. Briefly, all PDCs were thawed and cultured in Matrigel-coated flasks prepared with a working solution of 1X Ham's F-12 nutrient mix, without supplementation (Invitrogen, Waltham, MA, cat. 11765054), 100 U/mL penicillin-streptomycin (Invitrogen, cat. 15140122), and 2.5% Matrigel (Corning Inc., Corning, NY, cat. 354248) for the first three passages. The 947758-054-R-J2-PDC line was cultured in 6B/Colon 1A media, which includes advanced DMEM/F-12 (Thermo Fisher Scientific, cat. 12634028), 10 mM HEPES (Thermo Fisher Scientific, cat. 15630080), 1X GlutaMAX supplement (Thermo Fisher Scientific, cat. 35050061), 0.1 mg/mL primocin (InvivoGen, cat. ant-pm-2), 10% defined fetal bovine serum, heat inactivated (HyClone Laboratories Inc., cat. SH30070.03HI), 1.25 mM N-Acetyl-L-cysteine (Sigma-Aldrich, cat. A9165), 10 mM nicotinamide (Sigma-Aldrich, cat. N0636), 1X B-27 supplement (Thermo Fisher Scientific, cat. 17504044), 1X N-2 supplement (Thermo Fisher Scientific, cat. 17502048), and 10 microM Y-27632 dihydrochloride (Tocris Bioscience, cat. 1254). The 876862-298-R-J1-PDC was cultured in 6E media, which includes all 6B/Colon 1A media components plus 50% L-WRN conditioned media (ATCC, cat. CRL-3276), 50 ng/mL recombinant human EGF recombinant protein (hEGF; Thermo Fisher Scientific, cat. PHG0311), 10 ng/mL recombinant human fibroblast growth factor 10 (hGFG-10; PeproTech, cat. 100-26), 1 ng/mL recombinant human fibroblast growth factor 2 (hFGF-2; PeproTech, cat. 100-18B), and 1 µM prostaglandin E2 (PGE2; Tocris, cat. 2296). The 227483-062-R1-J1-PDC line was cultured in Panc media, containing all 6E components except hFGF-2, with the addition of 500 nM SB-431542 (Selleckchem, cat. S1067) and 10 nM gastrin (Tocris, cat. 3006). […]
# 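Further: spheroids exposed to agents for 7 days before reading.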
# 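Wherever viability, T/C is given: luminescence signal used as a stand-in for viable cells.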
smiles,measurement,setting,value
CC(=O)O[C@H]1C(=O)[C@@]2(C)[C@H]([C@H](OC(=O)c3ccccc3)[C@]3(O)C[C@H](OC(=O)[C@H](O)[C@@H](NC(=O)c4ccccc4)c4ccccc4)C(C)=C1C3(C)C)[C@]1(OC(C)=O)CO[C@@H]1C[C@@H]2O,"viability, T/C",compound 0.0316 µM,7.92% and 6.8%
same,"viability, T/C",compound 0.1 µM,9.5% and 7.41%
same,"viability, T/C",compound 0.316 µM,10.5% and 9.32%
same,"viability, T/C",compound 1 µM,8.91% and 8.31%
same,"viability, T/C",compound 3.16 µM,10.3% and 8.38%
same,"viability, T/C",compound 10 µM,14.3% and 11.1%
same,pIC50,curve of compound,> 7.50
COc1ccc([C@@H](O)c2cc(-c3ncnc4cc(N5CCOCC5)ccc34)c(F)cc2Cl)nn1,"viability, T/C",compound 0.0316 µM,88.4% and 91.3%
same,"viability, T/C",compound 0.1 µM,92.5% and 94.2%
same,"viability, T/C",compound 0.316 µM,73% and 78.6%
same,"viability, T/C",compound 1 µM,66.6% and 61.9%
same,"viability, T/C",compound 3.16 µM,59.3% and 44.2%
same,"viability, T/C",compound 10 µM,35.7% and 31%
same,pIC50,curve of compound,5.36 and 5.68
COc1cccc2c1C(=O)c1c(O)c3c(c(O)c1C2=O)CC(O)(C(=O)CO)CC3OC1CC(N)C(O)C(C)O1 (stereo not drawn),"viability, T/C",compound 0.0316 µM,12.5% and 9.59%
same,"viability, T/C",compound 0.1 µM,7.59% and 5.12%
same,"viability, T/C",compound 0.316 µM,1.88% and 1.98%
same,"viability, T/C",compound 1 µM,0.76% and 0.47%
same,"viability, T/C",compound 3.16 µM,3.8% and 3.34%
same,"viability, T/C",compound 10 µM,8.38% and 5.34%
same,pIC50,curve of compound,> 7.50
C=CC(=O)N1CCN(c2nc(=O)n(-c3c(C)ccnc3C(C)C)c3nc(-c4c(O)cccc4F)c(F)cc23)C(C)C1 (stereo not drawn) + CN1CCN(c2cc(C(=O)Nc3cc4cc(-c5cnn(C)c5)ccc4cn3)ccn2)CC1,pIC50,"curve of first compound, second compound 0.0316 µM",< 5.00
same,pIC50,"curve of first compound, second compound 0.1 µM",< 5.00
same,pIC50,"curve of first compound, second compound 0.316 µM",> 7.50
same,pIC50,"curve of first compound, second compound 1 µM",> 7.50
same,pIC50,"curve of first compound, second compound 3.16 µM",> 7.50
same,pIC50,"curve of first compound, second compound 10 µM",> 7.50
same,"viability, T/C","second compound 0.0316 µM, first compound 0.0316 µM",95.5%
same,"viability, T/C","second compound 0.0316 µM, first compound 0.1 µM",101%
same,"viability, T/C","second compound 0.0316 µM, first compound 0.316 µM",114%
same,"viability, T/C","second compound 0.0316 µM, first compound 1 µM",131%
same,"viability, T/C","second compound 0.0316 µM, first compound 3.16 µM",117%
same,"viability, T/C","second compound 0.0316 µM, first compound 10 µM",101%
same,"viability, T/C","second compound 0.1 µM, first compound 0.0316 µM",104%
same,"viability, T/C","second compound 0.1 µM, first compound 0.1 µM",92.8%
same,"viability, T/C","second compound 0.1 µM, first compound 0.316 µM",110%
same,"viability, T/C","second compound 0.1 µM, first compound 1 µM",112%
same,"viability, T/C","second compound 0.1 µM, first compound 3.16 µM",116%
same,"viability, T/C","second compound 0.1 µM, first compound 10 µM",88.3%
same,"viability, T/C","second compound 0.316 µM, first compound 0.0316 µM",27.9%
same,"viability, T/C","second compound 0.316 µM, first compound 0.1 µM",35.2%
same,"viability, T/C","second compound 0.316 µM, first compound 0.316 µM",38.1%
same,"viability, T/C","second compound 0.316 µM, first compound 1 µM",41.4%
same,"viability, T/C","second compound 0.316 µM, first compound 3.16 µM",37.6%
same,"viability, T/C","second compound 0.316 µM, first compound 10 µM",24.7%
same,"viability, T/C","second compound 1 µM, first compound 0.0316 µM",1.29%
same,"viability, T/C","second compound 1 µM, first compound 0.1 µM",1.17%
same,"viability, T/C","second compound 1 µM, first compound 0.316 µM",1.31%
same,"viability, T/C","second compound 1 µM, first compound 1 µM",1.24%
same,"viability, T/C","second compound 1 µM, first compound 3.16 µM",2.37%
same,"viability, T/C","second compound 1 µM, first compound 10 µM",2.29%
same,"viability, T/C","second compound 3.16 µM, first compound 0.0316 µM",0.53%
same,"viability, T/C","second compound 3.16 µM, first compound 0.1 µM",0.78%
same,"viability, T/C","second compound 3.16 µM, first compound 0.316 µM",0.7%
same,"viability, T/C","second compound 3.16 µM, first compound 1 µM",0.78%
same,"viability, T/C","second compound 3.16 µM, first compound 3.16 µM",1.84%
same,"viability, T/C","second compound 3.16 µM, first compound 10 µM",3.69%
same,"viability, T/C","second compound 10 µM, first compound 0.0316 µM",0.44%
same,"viability, T/C","second compound 10 µM, first compound 0.1 µM",0.59%
same,"viability, T/C","second compound 10 µM, first compound 0.316 µM",1.65%
same,"viability, T/C","second compound 10 µM, first compound 1 µM",0.86%
same,"viability, T/C","second compound 10 µM, first compound 3.16 µM",1.07%
same,"viability, T/C","second compound 10 µM, first compound 10 µM",0.98%
